Test results taken from PMC9147024 (2022).

What was measured:
Assay in all cases: SPR
[1] = test system: AAAGTTT (DNA, hairpin) CCAAAGTTTGCTCTCAAACTTTGG; settings: Na+ 100 mM, 50 mM Tris-HCl, 1 mM EDTA, pH 7.4, 25 °C
[2] = test system: AAATTT (DNA, hairpin) CCAAATTTGCTCTCAAATTTGG; settings: Na+ 100 mM, 50 mM Tris-HCl, 1 mM EDTA, pH 7.4, 25 °C
[3] = test system: AATAAT (DNA, hairpin) CCAATAATGCTCTCATTATTGG; settings: Na+ 100 mM, 50 mM Tris-HCl, 1 mM EDTA, pH 7.4, 25 °C
[4] = test system: ATATAT (DNA, hairpin) CCATATATGCTCTCATATATGG; settings: Na+ 100 mM, 50 mM Tris-HCl, 1 mM EDTA, pH 7.4, 25 °C
[5] = test system: AAAAAA (DNA, hairpin) CCAAAAAAGCTCTCTTTTTTGG; settings: Na+ 100 mM, 50 mM Tris-HCl, 1 mM EDTA, pH 7.4, 25 °C
[6] = test system: AAAGAAA (DNA, hairpin) CCAAAGAAAGCTCTCTTTCTTTGG; settings: Na+ 100 mM, 50 mM Tris-HCl, 1 mM EDTA, pH 7.4, 25 °C
[7] = test system: AAAGCTTT (DNA, hairpin) CCAAAGCTTTGCTCTCAAAGCTTTGG; settings: Na+ 100 mM; 50 mM Tris-HCl, 1 mM EDTA, pH 7.4, 25 °C
[8] = test system: AATGAAT (DNA, hairpin) CCAATGAATGCTCTCATTCATTGG; settings: Na+ 100 mM; 50 mM Tris-HCl, 1 mM EDTA, pH 7.4, 25 °C
[9] = test system: AATGCAAT (DNA, hairpin) CCAATGCAATGCTCTCATTGCATTGG; settings: Na+ 100 mM; 50 mM Tris-HCl, 1 mM EDTA, pH 7.4, 25 °C
[10] = test system: ATAGTAT (DNA, hairpin) CCATAGTATGCTCTCATACTATGG; settings: Na+ 100 mM; 50 mM Tris-HCl, 1 mM EDTA, pH 7.4, 25 °C
[11] = test system: ATAGCTAT (DNA, hairpin) CCATAGCTATGCTCTCATAGCTATGG; settings: Na+ 100 mM; 50 mM Tris-HCl, 1 mM EDTA, pH 7.4, 25 °C
[12] = test system: AAAGCAAA (DNA, hairpin) CCAAAGCAAAGCTCTCTTTGCTTTGG; settings: Na+ 100 mM, 50 mM Tris-HCl, 1 mM EDTA, pH 7.4, 25 °C

KD [1] [nM] | KD [2] [nM] | KD ([3]; Figure S2 prints 344 nM) [nM] | KD [4] [nM] | KD [5] [nM] | binding ([6]; NB [sic]) | KD ([1]; text b19 gives 1.8 nM) [nM] | KD [7] [nM] | binding ([3]; NB [sic]) | KD [8] [nM] | KD [9] [nM] | binding ([4]; NB [sic]) | KD [10] [nM] | KD [11] [nM] | binding ([5]; NB [sic]) | KD [6] [nM] | binding ([12]; NB [sic]) | KD [3] [nM] | KD [12] [nM] | binding ([2]; NB [sic]) | SMILES
1 | 138 |  | 709 | 1111 |  |  | 27 |  | 5.7 | 534 |  | 33.6 | 256 |  | 4.6 |  | 141 | 653 |  | c1cc(COc2ccc(C3=NCCCN3)cc2)nc(COc2ccc(C3=NCCCN3)cc2)c1
3.6 |  |  |  |  |  |  | 123 |  | 101 |  |  | 227 | 1000 |  | 43 |  |  |  | no | c1cc(COc2ccc(C3=NCCN3)cc2)nc(COc2ccc(C3=NCCN3)cc2)c1

Second part, the compound before the results:

SMILES | KD [1] [nM] | KD [2] [nM] | KD ([3]; Figure S2 prints 344 nM) [nM] | KD [4] [nM] | KD [5] [nM] | binding ([6]; NB [sic]) | KD ([1]; text b19 gives 1.8 nM) [nM] | KD [7] [nM] | binding ([3]; NB [sic]) | KD [8] [nM] | KD [9] [nM] | binding ([4]; NB [sic]) | KD [10] [nM] | KD [11] [nM] | binding ([5]; NB [sic]) | KD [6] [nM] | binding ([12]; NB [sic]) | KD [3] [nM] | KD [12] [nM] | binding ([2]; NB [sic])
N=C(N)c1ccc(OCc2cccc(COc3ccc(C(=N)N)cc3)c2)cc1 | 900 | 84 | 117 | 344 | 261 | no |  |  |  |  |  |  |  |  |  |  |  |  |  | 
N=C(N)c1ccc(OCc2cccc(COc3ccc(C(=N)N)cc3)n2)cc1 |  | 374 |  |  |  |  | 1.4 | 58 | no | 24 | 1176 | no | 68 | 719 | no | 19 | no |  |  | 
N=C(N)c1ccc(OCc2cccc(COc3ccc(C(N)=O)cc3)n2)cc1 | 52 |  |  |  |  |  |  | 1025 |  | 689 |  |  |  |  |  |  |  |  |  | 
